Measured values from patent publication EP4699613A1, “NOVEL USE OF CPNE7 PROTEIN-DERIVED PEPTIDE” (Hysensbio Co., Ltd, priority 2023, dated 2024).
No end group written: not given here.

Tests used:
[1] = system: human-derived three-dimensional skin tissue; test: Skin penetration of fluorescence-conjugated peptide in human-derived three-dimensional skin tissue (confocal microscopy); type: in vitro ADME; settings: 1 mM fluorescence-conjugated peptide
Method: To confirm the possibility of skin penetration of the peptides of the present invention, three-dimensional skin tissue composed of epidermis and dermis was created using human-derived keratinocytes and dermal fibroblasts, and then fluorescence-conjugated peptide (SEQ ID NO: 96) of the present invention at 1 mM was treated. After treatment, the position of fluorescence was continuously observed through confocal microscopy at 1, 6, 12, and 24 hours.
FITC fluorescence was attached to the lysine residue of the peptide (SEQ ID NO: 96) of the present invention to create Peptide-FITC using the peptide (SEQ ID NO: 96) of the present invention. Peptide-FITC at 1 mM was treated on human-derived three-dimensional skin tissue (TegoScience, Neoderm-ED) and the skin penetration state of Peptide-FITC was confirmed through confocal microscopy at 1 hour, 6 hours, 12 hours, and 24 hours.

[2] = system: Human dermal fibroblasts (hDFs); test: WST-8 assay, cytotoxicity in dermal fibroblasts; type: cell-based; settings: 48 hours treatment; tested at 10, 100 µM, 1, 5, 10 mM; WST-8, 450nm absorbance
Method: Human dermal fibroblasts (hDFs) were dispensed at 0.3×10^5/well in 96-well plates (using Fibroblast Growth Medium (Lonza, CC-4126) containing 2% FBS, 0.1% Insulin, 0.1% FGF, 0.1% Gentamycin sulfate-Amphotericin) and cultured for 24 hours in an incubator at 37°C, 5% CO2 conditions.
WST-8 analysis was performed to confirm cytotoxicity of the peptide (SEQ ID NO: 96) in dermal fibroblasts. The peptide was treated on dermal fibroblasts at concentrations of 10, 100 µM, 1, 5, 10 mM respectively. After treating for 48 hours at each concentration, WST-8 solution was dispensed into the culture medium at a 10:1 ratio, light-shielded, reacted for 2 hours under 37°C incubator conditions, and then measured at 450nm absorbance with a microplate.
The peptide (SEQ ID NO: 96) of the present invention was treated on dermal fibroblasts at concentrations of 10, 100 µM, 1, 5, 10 mM respectively. After 48 hours, cell viability was quantified through WST-8 analysis.

KYKQKRRSYK [SEQ ID NO: 96, KYKQKRRSYK]
position of fluorescence (skin penetration) ([1]; after 1 hour): observed in the stratum corneum
position of fluorescence (skin penetration) ([1]; after 6 hours): observed in the epidermal layer
position of fluorescence (skin penetration) ([1]; after 24 hours): existed in the dermal layer
position of fluorescence (skin penetration) ([1]; from 12 hours onward): began to be observed in the dermal layer
no cytotoxicity to dermal fibroblasts up to a concentration of [2]: ≤ 5 mM
significant cytotoxicity at a concentration of [2]: 10 mM
